# According to patent publication US20230322767A1, “ARYL SUBSTITUTED PYRROLO-PYRIDINONES AND THERAPEUTIC USES THEREOF” (Bayer Aktiengesellschaft, priority 2020, published 2023):
# Read-outs that look alike come from different tables or passages of the source.
# Key:
# Assay type in all cases: biochemical
# [1] = biological target: CSNK1A1 (Homo sapiens (Human), UniProt P48729); test: CSNK1A1 Assay 2 (ADP-Glo, 1 μM ATP); conditions: median, read-out: CSNK1A1 Assay 2 IC50 [mol/l] (median)
# Summary of the method: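 Enzyme (~0.0375 ng/μL) preincubated 15 min at 22° C with compound in HEPES pH 7.5 buffer, then reacted with 1 μM ATP and biotin-Ahx-KRRRAL-pS-VASLPGL peptide. ADP product measured by ADP-Glo luminescence after 1 h ATP depletion and 1 h detection at 22° C.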
# [2] = biological target: CSNK1D (Homo sapiens (Human), UniProt P48730); test: CSNK1D Assay (ADP-Glo, 1 μM ATP); conditions: median, read-out: CSNK1D IC50 [mol/l] (median)
# Summary of the method: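 Enzyme preincubated with compound 15 min at 22° C in 50 mM HEPES pH 7.5 buffer with 10 mM MgCl2, 1 mM DTT; kinase reaction run at 1 μM ATP with biotinylated peptide substrate. ADP formed was detected by ADP-Glo luminescence as the measure of activity.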
# [3] = biological target: wild-type Epidermal Growth Factor Receptor (EGFR) (Homo sapiens (Human), UniProt P00533); test: WT-EGFR Kinase Assay (TR-FRET, 2 mM ATP)
# Summary of the method: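 GST-tagged human EGFR (R669–A1210, Sf9-expressed) preincubated 15 min at 22° C with compound in pH 7.0 Hepes/MgCl2 buffer, then reacted at 2 mM ATP with a biotinylated peptide substrate. Phosphorylation detected by TR-FRET (streptavidin-XL665, Tb-cryptate anti-phosphotyrosine) as the 665/620 nm emission ratio.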
# [4] = EGFR Wildtyp 2 mM ATP IC50 [mol/l] (median), median or individual measurements
# [5] = read-out: EGFR Wildtyp 2 mM ATP IC50 [mol/l] (median), median or individual measurements
# Sequence of CSNK1A1 (P48729 whole entry): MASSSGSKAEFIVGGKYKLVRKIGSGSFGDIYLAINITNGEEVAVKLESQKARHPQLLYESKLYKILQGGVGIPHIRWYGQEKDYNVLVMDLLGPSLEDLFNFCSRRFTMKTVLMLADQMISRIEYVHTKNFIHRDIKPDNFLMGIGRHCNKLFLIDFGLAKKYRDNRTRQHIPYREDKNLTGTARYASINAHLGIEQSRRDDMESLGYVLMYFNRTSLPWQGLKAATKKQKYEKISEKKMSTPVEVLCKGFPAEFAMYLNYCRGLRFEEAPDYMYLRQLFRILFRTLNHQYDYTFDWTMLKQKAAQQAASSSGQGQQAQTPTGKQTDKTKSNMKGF
# Sequence of wild-type Epidermal Growth Factor Receptor (EGFR) (P00533 669-1210): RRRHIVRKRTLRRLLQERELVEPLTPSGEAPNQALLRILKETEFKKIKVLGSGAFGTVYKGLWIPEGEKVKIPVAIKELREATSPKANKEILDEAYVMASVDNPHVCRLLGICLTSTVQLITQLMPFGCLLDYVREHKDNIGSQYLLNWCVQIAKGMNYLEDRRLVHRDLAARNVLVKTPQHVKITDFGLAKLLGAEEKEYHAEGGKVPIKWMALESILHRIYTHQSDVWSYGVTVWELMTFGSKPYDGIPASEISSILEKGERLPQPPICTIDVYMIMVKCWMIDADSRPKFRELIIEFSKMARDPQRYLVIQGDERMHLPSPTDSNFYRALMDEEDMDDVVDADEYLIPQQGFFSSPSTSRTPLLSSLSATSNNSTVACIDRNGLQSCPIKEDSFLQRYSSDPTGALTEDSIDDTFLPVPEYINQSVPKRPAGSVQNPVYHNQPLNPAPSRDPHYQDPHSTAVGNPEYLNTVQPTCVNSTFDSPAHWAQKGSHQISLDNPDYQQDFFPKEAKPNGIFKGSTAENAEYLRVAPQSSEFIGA
# Sequence of CSNK1D (P48730 whole entry): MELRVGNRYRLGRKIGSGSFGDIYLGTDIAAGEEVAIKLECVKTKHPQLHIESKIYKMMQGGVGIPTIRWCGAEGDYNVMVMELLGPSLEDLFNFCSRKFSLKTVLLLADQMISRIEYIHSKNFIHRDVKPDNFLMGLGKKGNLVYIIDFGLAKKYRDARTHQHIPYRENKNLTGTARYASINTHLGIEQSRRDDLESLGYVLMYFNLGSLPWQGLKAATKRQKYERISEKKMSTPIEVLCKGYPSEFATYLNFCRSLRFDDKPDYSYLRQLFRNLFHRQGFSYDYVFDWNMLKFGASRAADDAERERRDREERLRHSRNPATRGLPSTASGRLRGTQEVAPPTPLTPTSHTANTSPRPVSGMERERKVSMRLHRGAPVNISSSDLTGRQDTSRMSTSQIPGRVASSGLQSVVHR
SMILES,IC50 [1] [nM],IC50 [2] [nM],"IC50 [3, 4] [nM]","IC50 [3, 5] [nM]"
"CC(C(=O)Nc1cc(-c2[nH]c3ccn(C)c(=O)c3c2-c2ccccc2)ccn1)c1ccc(F)cc1 (racemic) [Example 103, 2-(4-fluorophenyl)-N-[4-(5-methyl-4-oxo-3-phenyl-4,5-dihydro-1H-pyrrolo[3,2-c]pyridin-2-yl)pyridin-2-yl]propanamide]",5,11,> 20000,–
"CC(C(=O)Nc1cc(-c2[nH]c3ccn(C)c(=O)c3c2-c2cccc(Cl)c2)ccn1)c1ccc(F)cc1 (racemic) [Example 106, N-{4-[3-(3-chlorophenyl)-5-methyl-4-oxo-4,5-dihydro-1H-pyrrolo[3,2-c]pyridin-2-yl]pyridin-2-yl}-2-(4-fluorophenyl)propanamide]",9.2,11,> 20000,–
"Cn1ccc2[nH]c(-c3ccnc(NC(=O)C(CC(F)F)c4ccc(F)cc4)c3)c(-c3ccc(F)cc3)c2c1=O (racemic) [Example 107, 4,4-difluoro-2-(4-fluorophenyl)-N-{4-[3-(4-fluorophenyl)-5-methyl-4-oxo-4,5-dihydro-1H-pyrrolo[3,2-c]pyridin-2-yl]pyridin-2-yl}butanamide]",3.5,4.4,> 20000,–
"CC(C(=O)Nc1cc(-c2[nH]c3ccn(C)c(=O)c3c2-c2cccnc2F)ccn1)c1ccc(F)cc1 (racemic) [Example 110, 2-(4-fluorophenyl)-N-{4-[3-(2-fluoropyridin-3-yl)-5-methyl-4-oxo-4,5-dihydro-1H-pyrrolo[3,2-c]pyridin-2-yl]pyridin-2-yl}propanamide]",30,21,> 20000,–
"Cc1ccccc1-c1c(-c2ccnc(NC(=O)C(C)c3ccc(F)cc3)c2)[nH]c2ccn(C)c(=O)c12 (racemic) [Example 111, 2-(4-fluorophenyl)-N-{4-[5-methyl-3-(2-methylphenyl)-4-oxo-4,5-dihydro-1H-pyrrolo[3,2-c]pyridin-2-yl]pyridin-2-yl}propanamide]",37,22,> 20000,–
"CC(C(=O)Nc1cc(-c2[nH]c3ccn(C)c(=O)c3c2-c2ccccc2Cl)ccn1)c1ccc(F)cc1 (racemic) [Example 112, N-{4-[3-(2-chlorophenyl)-5-methyl-4-oxo-4,5-dihydro-1H-pyrrolo[3,2-c]pyridin-2-yl]pyridin-2-yl}-2-(4-fluorophenyl)propanamide]",23,14,> 20000,–
"CC(C(=O)Nc1cc(-c2[nH]c3ccn(C)c(=O)c3c2-c2cccc(O)c2)ccn1)c1ccc(F)cc1 (racemic) [Example 113, 2-(4-fluorophenyl)-N-{4-[3-(3-hydroxyphenyl)-5-methyl-4-oxo-4,5-dihydro-1H-pyrrolo[3,2-c]pyridin-2-yl]pyridin-2-yl}propanamide]",32,33,> 20000,–
"CC(C(=O)Nc1cc(-c2[nH]c3ccn(C)c(=O)c3c2-c2ccc(F)c(F)c2)ccn1)c1ccc(F)cc1 (racemic) [Example 114, N-{4-[3-(3,4-difluorophenyl)-5-methyl-4-oxo-4,5-dihydro-1H-pyrrolo[3,2-c]pyridin-2-yl]pyridin-2-yl}-2-(4-fluorophenyl)propanamide]",4.8,6.8,> 20000,–
"CC(C(=O)Nc1cc(-c2[nH]c3ccn(C)c(=O)c3c2-c2ccoc2)ccn1)c1ccc(F)cc1 (racemic) [Example 115, 2-(4-fluorophenyl)-N-{4-[3-(3-furyl)-5-methyl-4-oxo-4,5-dihydro-1H-pyrrolo[3,2-c]pyridin-2-yl]pyridin-2-yl}propanamide]",2.2,5.6,> 20000,–
"CC(C(=O)Nc1cc(-c2[nH]c3ccn(C)c(=O)c3c2-c2ccco2)ccn1)c1ccc(F)cc1 (racemic) [Example 116, 2-(4-fluorophenyl)-N-{4-[3-(2-furyl)-5-methyl-4-oxo-4,5-dihydro-1H-pyrrolo[3,2-c]pyridin-2-yl]pyridin-2-yl}propanamide]",3.3,7.8,> 5710,> 5710
"CC(C(=O)Nc1cc(-c2[nH]c3ccn(C)c(=O)c3c2-c2cc(F)c(F)c(F)c2)ccn1)c1ccc(F)cc1 (racemic) [Example 117, 2-(4-fluorophenyl)-N-{4-[5-methyl-4-oxo-3-(3,4,5-trifluorophenyl)-4,5-dihydro-1H-pyrrolo[3,2-c]pyridin-2-yl]pyridin-2-yl}propanamide]",4.7,7.4,> 20000,–
"Cn1ccc2[nH]c(-c3ccnc(NC(=O)C(CC(F)F)c4ccc(F)cc4)c3)c(-c3cccnc3)c2c1=O (racemic) [Example 118, 4,4-difluoro-2-(4-fluorophenyl)-N-{4-[5-methyl-4-oxo-3-(pyridin-3-yl)-4,5-dihydro-1H-pyrrolo[3,2-c]pyridin-2-yl]pyridin-2-yl}butanamide]",8.6,12,> 20000,–
"CC(C(=O)Nc1cc(-c2[nH]c3ccn(C)c(=O)c3c2-c2ccc(O)cc2)ccn1)c1ccc(F)cc1 (racemic) [Example 119, 2-(4-fluorophenyl)-N-{4-[3-(4-hydroxyphenyl)-5-methyl-4-oxo-4,5-dihydro-1H-pyrrolo[3,2-c]pyridin-2-yl]pyridin-2-yl}propanamide]",15,11,> 20000,–
"CC(C(=O)Nc1cc(-c2[nH]c3ccn(C)c(=O)c3c2-c2cc(F)ccc2F)ccn1)c1ccc(F)cc1 (racemic) [Example 120, N-{4-[3-(2,5-difluorophenyl)-5-methyl-4-oxo-4,5-dihydro-1H-pyrrolo[3,2-c]pyridin-2-yl]pyridin-2-yl}-2-(4-fluorophenyl)propanamide]",6.5,8.1,> 20000,–
"CC(C(=O)Nc1cc(-c2[nH]c3ccn(C)c(=O)c3c2-c2cc(F)cc(F)c2)ccn1)c1ccc(F)cc1 (racemic) [Example 121, N-{4-[3-(3,5-difluorophenyl)-5-methyl-4-oxo-4,5-dihydro-1H-pyrrolo[3,2-c]pyridin-2-yl]pyridin-2-yl}-2-(4-fluorophenyl)propanamide]",7,13,> 5710,> 5710
"CC(C(=O)Nc1cc(-c2[nH]c3ccn(C)c(=O)c3c2-c2ccc(Cl)s2)ccn1)c1ccc(F)cc1 (racemic) [Example 122, N-{4-[3-(5-chloro-2-thienyl)-5-methyl-4-oxo-4,5-dihydro-1H-pyrrolo[3,2-c]pyridin-2-yl]pyridin-2-yl}-2-(4-fluorophenyl)propanamide]",3.6,9,> 5710,> 5710
"CC(C(=O)Nc1cc(-c2[nH]c3ccn(C)c(=O)c3c2-c2ccccc2C#N)ccn1)c1ccc(F)cc1 (racemic) [Example 123, N-{4-[3-(2-cyanophenyl)-5-methyl-4-oxo-4,5-dihydro-1H-pyrrolo[3,2-c]pyridin-2-yl]pyridin-2-yl}-2-(4-fluorophenyl)propanamide]",25,22,> 20000,–
"CC(C(=O)Nc1cc(-c2[nH]c3ccn(C)c(=O)c3c2-c2ccccc2O)ccn1)c1ccc(F)cc1 (racemic) [Example 124, 2-(4-fluorophenyl)-N-{4-[3-(2-hydroxyphenyl)-5-methyl-4-oxo-4,5-dihydro-1H-pyrrolo[3,2-c]pyridin-2-yl]pyridin-2-yl}propanamide]",5.6,11,> 20000,–
"Cc1ccc(-c2c(-c3ccnc(NC(=O)C(C)c4ccc(F)cc4)c3)[nH]c3ccn(C)c(=O)c23)s1 (racemic) [Example 125, 2-(4-fluorophenyl)-N-{4-[5-methyl-3-(5-methyl-2-thienyl)-4-oxo-4,5-dihydro-1H-pyrrolo[3,2-c]pyridin-2-yl]pyridin-2-yl}propanamide]",3.3,5.9,> 1630,> 1630
"CC(C(=O)Nc1cc(-c2[nH]c3ccn(C)c(=O)c3c2-c2ccnc(N)c2)ccn1)c1ccc(F)cc1 (racemic) [Example 126, N-{4-[3-(2-aminopyridin-4-yl)-5-methyl-4-oxo-4,5-dihydro-1H-pyrrolo[3,2-c]pyridin-2-yl]pyridin-2-yl}-2-(4-fluorophenyl)propanamide]",55,63,> 20000,–
"CC(C(=O)Nc1cc(-c2[nH]c3ccn(C)c(=O)c3c2-c2cc(F)ccc2C#N)ccn1)c1ccc(F)cc1 (racemic) [Example 127, N-{4-[3-(2-cyano-5-fluorophenyl)-5-methyl-4-oxo-4,5-dihydro-1H-pyrrolo[3,2-c]pyridin-2-yl]pyridin-2-yl}-2-(4-fluorophenyl)propanamide]",33,33,> 20000,–
"CN1CCc2[nH]c(-c3ccnc(NC(=O)C(CC(F)F)c4ccc(F)cc4)c3)c(-c3cc(F)ccc3C#N)c2C1=O (racemic) [Example 128, N-{4-[3-(2-cyano-5-fluorophenyl)-5-methyl-4-oxo-4,5,6,7-tetrahydro-1H-pyrrolo[3,2-c]pyridin-2-yl]pyridin-2-yl}-4,4-difluoro-2-(4-fluorophenyl)butanamide]",14,12,> 20000,–
